Columns and labels:
[1] = tested on: Methicillin Resistant Staphylococcus aureus strain USA 200; assay: Minimum inhibitory concentration (MIC), CLSI broth micro-dilution, S. aureus; type: cell-based; conditions: Staphylococcus aureus, MRSA / USA200; Table 6; MRSA USA 200; cation adjusted Mueller Hinton Broth + 0.002% Tween-80; 35° C., 22 hours
In short: (§1)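 Colonies grown 20 h at 35° C on Trypticase Soy agar (MRSA) or Luria agar (E. coli) were suspended in cation-adjusted Mueller Hinton broth with 0.002% Tween-80. Suspensions were added at OD600 0.0005 to 10-point twofold compound dilutions, then incubated 22 h at 35° C.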

[2] = tested on: Escherichia coli ATCC 25922; assay: Minimum inhibitory concentration (MIC), CLSI broth micro-dilution, E. coli; type: cell-based; conditions: Escherichia coli, ATCC25922, 22 h, Table 6, cation adjusted Mueller Hinton Broth + 0.002% Tween-80, 35° C.
In short: as §1

CCCCCCCc1ccc(C(=O)N[C@@H](CS)C(=O)N(C)[C@@H]2C(=O)N[C@@H](C)C(=O)N[C@H](C(=O)NCC#N)Cc3ccc(OCCN)c(c3)-c3cc2ccc3OCCN)c(C)c1 (racemic) [Compound 454, rac-(8S,11S,14S)-3,18-bis(2-aminoethoxy)-N-(cyanomethyl)-11-methyl-14-[methyl-[rac-(2R)-2-[(4-heptyl-2-methyl-benzoyl)amino]-3-sulfanyl-propanoyl]amino]-10,13-dioxo-9,12-diazatricyclo[13.3.1.12,6]icosa-1(18),2(20),3,5,15(19),16-hexaene-8-carboxamide] was tested, and the MIC [1] was 0.55 µM and the MIC [2] was 4.4 µM.
With CCCCCCCc1ccc(C(=O)N[C@H](CCN)C(=O)N(C)[C@@H]2C(=O)N[C@@H](C)C(=O)N[C@H](C(=O)NCC#N)Cc3ccc(OCCN)c(c3)-c3cc2ccc3OCCN)c(C)c1 (racemic) [Compound 456, rac-(8S,11S,14S)-3,18-bis(2-aminoethoxy)-N-(cyanomethyl)-11-methyl-14-[methyl-[rac-(2R)-4-amino-2-[(4-heptyl-2-methyl-benzoyl)amino]butanoyl]amino]-10,13-dioxo-9,12-diazatricyclo[13.3.1.12,6]icosa-1(18),2(20),3,5,15(19),16-hexaene-8-carboxamide] the MIC [1] was 0.56 µM and the MIC [2] was 3.3 µM.
For Cc1nc(-c2ccc(C(C)(C)C)cc2)ncc1C(=O)N[C@@H](CN)C(=O)N(C)[C@@H]1C(=O)N[C@@H](C)C(=O)N[C@H](C(=O)NCC#N)Cc2ccc(OCCN)c(c2)-c2cc1ccc2OCCN (racemic) [Compound 457, rac-(8S,11S,14S)-3,18-bis(2-aminoethoxy)-N-(cyanomethyl)-11-methyl-14-[methyl-[rac-(2S)-3-amino-2-[[2-(4-tert-butylphenyl)-4-methyl-pyrimidine-5-carbonyl]amino]propanoyl]amino]-10,13-dioxo-9,12-diazatricyclo[13.3.1.12,6]icosa-1(18),2(20),3,5,15(19),16-hexaene-8-carboxamide], the MIC [1] was 0.025 µM and the MIC [2] was 0.27 µM.
With Cc1nc(-c2ccc(CC(C)C)cc2)ncc1C(=O)N[C@@H](CCO)C(=O)N(C)[C@@H]1C(=O)N[C@@H](C)C(=O)N[C@H](C(=O)NCC#N)Cc2ccc(OCCN)c(c2)-c2cc1ccc2OCCN (racemic) [Compound 458, rac-(8S,11S,14S)-3,18-bis(2-aminoethoxy)-N-(cyanomethyl)-11-methyl-14-[methyl-[rac-(2S)-4-hydroxy-2-[[2-(4-isobutylphenyl)-4-methyl-pyrimidine-5-carbonyl]amino]butanoyl]amino]-10,13-dioxo-9,12-diazatricyclo[13.3.1.12,6]icosa-1(18),2(20),3,5,15(19),16-hexaene-8-carboxamide] the MIC [1] was 0.033 µM and the MIC [2] was 1.1 µM.
Cc1nc(-c2ccc(C(C)(C)C)cc2)ncc1C(=O)N[C@@H](CCO)C(=O)N(C)[C@@H]1C(=O)N[C@@H](C)C(=O)N[C@H](C(=O)NCC#N)Cc2ccc(OCCN)c(c2)-c2cc1ccc2OCCN (racemic) [Compound 459, rac-(8S,11S,14S)-3,18-bis(2-aminoethoxy)-N-(cyanomethyl)-11-methyl-14-[methyl-[rac-(2S)-2-[[2-(4-tert-butylphenyl)-4-methyl-pyrimidine-5-carbonyl]amino]-4-hydroxy-butanoyl]amino]-10,13-dioxo-9,12-diazatricyclo[13.3.1.12,6]icosa-1(18),2(20),3,5,15(19),16-hexaene-8-carboxamide] gave an MIC [1] of 0.083 µM and an MIC [2] of 0.71 µM.
CCCCCCc1ccc(C(=O)N2C[C@@H](CN)C[C@H]2C(=O)N(C)[C@@H]2C(=O)N[C@@H](C)C(=O)N[C@H](C(=O)NCC#N)Cc3ccc(OCCN)c(c3)-c3cc2ccc3OCCN)c(C)c1 (racemic) [Compound 461, rac-(8S,11S,14S)-3,18-bis(2-aminoethoxy)-N-(cyanomethyl)-11-methyl-14-[methyl-[rac-(2S,4R)-4-(aminomethyl)-1-(4-hexyl-2-methyl-benzoyl)pyrrolidine-2-carbonyl]amino]-10,13-dioxo-9,12-diazatricyclo[13.3.1.12,6]icosa-1(18),2(20),3,5,15(19),16-hexaene-8-carboxamide] showed an MIC [1] of 0.051 µM and an MIC [2] of 1.1 µM.
For Cc1nc(-c2ccc(C(C)(C)C)cc2)ncc1C(=O)N[C@@H](CNC(=N)N)C(=O)N(C)[C@@H]1C(=O)N[C@@H](C)C(=O)N[C@H](C(=O)NCC#N)Cc2ccc(OCCN)c(c2)-c2cc1ccc2OCCN (racemic) [Compound 462, rac-(8S,11S,14S)-3,18-bis(2-aminoethoxy)-N-(cyanomethyl)-11-methyl-14-[methyl-[rac-(2S)-2-[[2-(4-tert-butylphenyl)-4-methyl-pyrimidine-5-carbonyl]amino]-3-guanidino-propanoyl]amino]-10,13-dioxo-9,12-diazatricyclo[13.3.1.12,6]icosa-1(18),2(20),3,5,15(19),16-hexaene-8-carboxamide], the MIC [1] was 0.027 µM and the MIC [2] was 5.4 µM.
Compound Cc1nc(-c2ccc(C(C)(C)C)cc2)nc(C)c1C(=O)N[C@@H](C)C(=O)N[C@@H](CCN)C(=O)N(C)[C@@H]1C(=O)N[C@@H](C)C(=O)N[C@H](C(=O)NCC#N)Cc2ccc(OCCN)c(c2)-c2cc1ccc2OCCN (racemic) [Compound 464, rac-(8S,11S,14S)-3,18-bis(2-aminoethoxy)-N-(cyanomethyl)-11-methyl-14-[methyl-[rac-(2S)-4-amino-2-[[rac-(2S)-2-[[2-(4-tert-butylphenyl)-4,6-dimethyl-pyrimidine-5-carbonyl]amino]propanoyl]amino]butanoyl]amino]-10,13-dioxo-9,12-diazatricyclo[13.3.1.12,6]icosa-1(18),2(20),3,5,15(19),16-hexaene-8-carboxamide] has an MIC [1] of 0.063 µM and an MIC [2] of 4 µM.
Cc1nc(-c2ccc(C(C)(C)C)cc2)nc(C)c1C(=O)N[C@@H](CO)C(=O)N[C@@H](CCN)C(=O)N(C)[C@@H]1C(=O)N[C@@H](C)C(=O)N[C@H](C(=O)NCC#N)Cc2ccc(OCCN)c(c2)-c2cc1ccc2OCCN (racemic) [Compound 465, rac-(8S,11S,14S)-3,18-bis(2-aminoethoxy)-N-(cyanomethyl)-11-methyl-14-[methyl-[rac-(2S)-4-amino-2-[[rac-(2S)-2-[[2-(4-tert-butylphenyl)-4,6-dimethyl-pyrimidine-5-carbonyl]amino]-3-hydroxy-propanoyl]amino]butanoyl]amino]-10,13-dioxo-9,12-diazatricyclo[13.3.1.12,6]icosa-1(18),2(20),3,5,15(19),16-hexaene-8-carboxamide] gave an MIC [1] of 0.047 µM and an MIC [2] of 4 µM.
With Cc1nc(-c2ccc(C(C)(C)C)cc2)nc(C)c1C(=O)N[C@H](CO)C(=O)N[C@@H](CCN)C(=O)N(C)[C@@H]1C(=O)N[C@@H](C)C(=O)N[C@H](C(=O)NCC#N)Cc2ccc(OCCN)c(c2)-c2cc1ccc2OCCN (racemic) [Compound 467, rac-(8S,11S,14S)-3,18-bis(2-aminoethoxy)-N-(cyanomethyl)-11-methyl-14-[methyl-[rac-(2S)-4-amino-2-[[rac-(2R)-2-[[2-(4-tert-butylphenyl)-4,6-dimethyl-pyrimidine-5-carbonyl]amino]-3-hydroxy-propanoyl]amino]butanoyl]amino]-10,13-dioxo-9,12-diazatricyclo[13.3.1.12,6]icosa-1(18),2(20),3,5,15(19),16-hexaene-8-carboxamide] the MIC [1] was 0.19 µM and the MIC [2] was 8 µM.

From patent publication US20260274892A1, “MACROCYCLIC BROAD SPECTRUM ANTIBIOTICS” (RQx Pharmaceuticals, Inc., priority 2017, published 2026)
